Laboratory results published in patent US10934283B2, “COMT inhibiting methods and compositions” (LIEBER INSTITUTE FOR BRAIN DEVELOPMENT, priority 2015, dated 2021).

Target: T1, catechol-O-methyltransferase (COMT) (Homo sapiens, UniProt P21964)
T1 construct: M51A variant) was expressed in HEK 293F cells
T1 sequence (P21964 52-271 limits assumed): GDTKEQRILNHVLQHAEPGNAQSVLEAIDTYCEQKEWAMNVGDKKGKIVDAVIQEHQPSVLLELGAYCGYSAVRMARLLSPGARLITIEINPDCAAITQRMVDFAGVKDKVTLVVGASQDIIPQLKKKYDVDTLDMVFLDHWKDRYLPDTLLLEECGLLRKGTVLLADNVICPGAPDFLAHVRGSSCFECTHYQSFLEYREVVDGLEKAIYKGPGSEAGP
Assay: COMT inhibition assay (HTRF, production of SAH from SAM)
Type: biochemical
Conditions: table does not say MB-COMT or S-COMT
In short: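 Membranes from HEK293F cells expressing MB-COMT (M51A variant) incubated with 20 μM SAM and 1.5 μM dopamine plus compound (10 concentrations) for 40 min at 37 °C; S-COMT (Val158) at 0.15 ng/well used 100 μM dopamine, 15 min. SAH measured by HTRF against a standard curve; pIC50 from 4-parameter logistic fit.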

Row | SMILES | Activity range (pIC50)
1 | O=c1cc2n(cc1O)CCN(Cc1c[nH]nc1-c1cccs1)C2 [Example 43, 7-hydroxy-2-{[3-(thiophen-2-yl)-1H-pyrazol-4-yl]methyl}-1,2,3,4-tetrahydro-8H-pyrido[1,2-a]pyrazin-8-one] | ++ (two plus signs (++) is associated with a pIC50 of from about 6 to 7)
2 | O=c1cc2n(cc1O)CCN(Cc1c(F)cccc1Cl)C2 [Example 59, 2-[(2-chloro-6-fluoro-phenyl)methyl]-7-hydroxy-3,4-dihydro-1H-pyrido[1,2-a]pyrazin-8-one] | +++ (three plus signs (+++) is associated with a pIC50 of above about 7)
3 | CC(c1ccc(C(F)(F)F)cc1)N1CCn2cc(O)c(=O)cc2C1 (stereo not shown) [Example 70, 7-hydroxy-2-{1-[4-(trifluoromethyl)phenyl]ethyl}-1,2,3,4-tetrahydro-8H-pyrido[1,2-a]pyrazin-8-one] | ++ (two plus signs (++) is associated with a pIC50 of from about 6 to 7)
4 | Cc1ccc(C)c(C(C)N2CCn3cc(O)c(=O)cc3C2)c1 (stereo not shown) [Example 87, 2-[1-(2,5-dimethylphenyl)ethyl]-7-hydroxy-1,2,3,4-tetrahydro-8H-pyrido[1,2-a]pyrazin-8-one] | +++ (three plus signs (+++) is associated with a pIC50 of above about 7)
5 | O=c1cc2n(cc1O)CCN(C1CCc3ccccc31)C2 (stereo not shown) [Example 84, 2-(2,3-dihydro-1H-inden-1-yl)-7-hydroxy-1,2,3,4-tetrahydro-8H-pyrido[1,2-a]pyrazin-8-one] | ++ (two plus signs (++) is associated with a pIC50 of from about 6 to 7)
6 | O=c1cc2n(cc1O)CCN(CC1CCCCCCC1)C2 [Example 26, 2-(cyclooctylmethyl)-7-hydroxy-1,2,3,4-tetrahydro-8H-pyrido[1,2-a]pyrazin-8-one] | ++ (two plus signs (++) is associated with a pIC50 of from about 6 to 7)
7 | O=c1cc2n(cc1O)CCN(Cc1cc(-c3ccccc3)[nH]n1)C2 [Example 34, 7-hydroxy-2-[(5-phenyl-1H-pyrazol-3-yl)methyl]-1,2,3,4-tetrahydro-8H-pyrido[1,2-a]pyrazin-8-one] | ++ (two plus signs (++) is associated with a pIC50 of from about 6 to 7)
8 | CCc1ccc(CN2CCn3cc(O)c(=O)cc3C2c2cccc(-c3cccnc3)c2)cc1 (stereo not shown) [Example 126, 2-(4-ethylbenzyl)-7-hydroxy-1-[3-(pyridin-3-yl)phenyl]-1,2,3,4-tetrahydro-8H-pyrido[1,2-a]pyrazin-8-one] | +++ (three plus signs (+++) is associated with a pIC50 of above about 7)
9 | O=c1cc2n(cc1O)CCN(C1(c3ccccc3)COC1)C2 [Example 111, 7-hydroxy-2-(3-phenyloxetan-3-yl)-3,4-dihydro-1H-pyrido[1,2-a]pyrazin-8-one] | ++ (two plus signs (++) is associated with a pIC50 of from about 6 to 7)
10 | O=c1cc2n(cc1O)CCN(Cc1ccccc1C(F)(F)F)C2 [Example 44, 7-hydroxy-2-[2-(trifluoromethyl)benzyl]-1,2,3,4-tetrahydro-8H-pyrido[1,2-a]pyrazin-8-one] | +++ (three plus signs (+++) is associated with a pIC50 of above about 7)
11 | O=c1cc2n(cc1O)CCN(Cc1ccc(Cl)cc1Cl)C2 [Example 57, 7-hydroxy-2-[(2,4-dichlorophenyl)methyl]-1,2,3,4-tetrahydro-8H-pyrido[1,2-a]pyrazin-8-one] | +++ (three plus signs (+++) is associated with a pIC50 of above about 7)
12 | O=c1cc2n(cc1O)CC(c1ccccc1)N(Cc1ccccc1)C2 (stereo not shown) [Example 127, 2-benzyl-7-hydroxy-3-phenyl-1,2,3,4-tetrahydro-8H-pyrido[1,2-a]pyrazin-8-one] | +++ (three plus signs (+++) is associated with a pIC50 of above about 7)
13 | CC1Cn2cc(O)c(=O)cc2CN1Cc1ccccc1 (stereo not shown) [Example 131, 2-benzyl-7-hydroxy-3-methyl-1,2,3,4-tetrahydro-8H-pyrido[1,2-a]pyrazin-8-one] | ++ (two plus signs (++) is associated with a pIC50 of from about 6 to 7)
14 | COc1ccccc1CN1CCn2cc(O)c(=O)cc2C1 [Example 51, 7-hydroxy-2-(2-methoxybenzyl)-1,2,3,4-tetrahydro-8H-pyrido[1,2-a]pyrazin-8-one] | ++ (two plus signs (++) is associated with a pIC50 of from about 6 to 7)
15 | CC(c1cccc(C#N)c1)N1CCn2cc(O)c(=O)cc2C1 (stereo not shown) [Example 95, 3-[1-(7-hydroxy-8-oxo-1,3,4,8-tetrahydro-2H-pyrido[1,2-a]pyrazin-2-yl)ethyl]benzonitrile] | ++ (two plus signs (++) is associated with a pIC50 of from about 6 to 7)
16 | O=c1cc2n(cc1O)CCN(C(c1ccccc1)C(F)(F)F)C2 (stereo not shown) [Example 101, 7-hydroxy-2-(2,2,2-trifluoro-1-phenylethyl)-1,2,3,4-tetrahydro-8H-pyrido[1,2-a]pyrazin-8-one] | +++ (three plus signs (+++) is associated with a pIC50 of above about 7)

Row | SMILES | Activity range (pIC50)
17 | CCc1ccc(CN2CCn3cc(O)c(=O)cc3C2)cc1 [Example 13, 2-(4-ethylbenzyl)-7-hydroxy-1,2,3,4-tetrahydro-8H-pyrido[1,2-a]pyrazin-8-one] | +++ (three plus signs (+++) is associated with a pIC50 of above about 7)
18 | O=c1cc2n(cc1O)CCN(C(c1ccccc1)C1CCCC1)C2 (stereo not shown) [Example 82, 2-[cyclopentyl(phenyl)methyl]-7-hydroxy-1,2,3,4-tetrahydro-8H-pyrido[1,2-a]pyrazin-8-one] | +++ (three plus signs (+++) is associated with a pIC50 of above about 7)
19 | CC(=O)Nc1cccc(C(C)N2CCn3cc(O)c(=O)cc3C2)c1 (stereo not shown) [Example 96, N-{3-[1-(7-hydroxy-8-oxo-1,3,4,8-tetrahydro-2H-pyrido[1,2-a]pyrazin-2-yl)ethyl]phenyl}acetamide] | ++ (two plus signs (++) is associated with a pIC50 of from about 6 to 7)
20 | O=c1cc2n(cc1O)CCN(C1(c3ccccc3Cl)CC1)C2 [Example 106, 2-[1-(2-chlorophenyl)cyclopropyl]-7-hydroxy-3,4-dihydro-1H-pyrido[1,2-a]pyrazin-8-one] | +++ (three plus signs (+++) is associated with a pIC50 of above about 7)
21 | Cc1ccccc1C(C)N1CCn2cc(O)c(=O)cc2C1 (stereo not shown) [Example 67, 7-hydroxy-2-[1-(2-methylphenyl)ethyl]-1,2,3,4-tetrahydro-8H-pyrido[1,2-a]pyrazin-8-one] | +++ (three plus signs (+++) is associated with a pIC50 of above about 7)
22 | O=c1cc2n(cc1O)CCN(CCn1nnc3ccccc31)C2 [Example 4, 2-[2-(benzotriazol-1-yl)ethyl]-7-hydroxy-3,4-dihydro-1H-pyrido[1,2-a]pyrazin-8-one] | + (a single plus (+) is associated with a pIC50 of from about 4.5 to 6)
23 | O=c1cc2n(cc1O)CCN(Cc1ccc(Oc3ccccc3)cc1)C2 [Example 47, 7-hydroxy-2-(4-phenoxybenzyl)-1,2,3,4-tetrahydro-8H-pyrido[1,2-a]pyrazin-8-one] | +++ (three plus signs (+++) is associated with a pIC50 of above about 7)
24 | CC(c1cc(F)cc(F)c1F)N1CCn2cc(O)c(=O)cc2C1 (stereo not shown) [Example 75, 7-hydroxy-2-[1-(2,3,5-trifluorophenyl)ethyl]-1,2,3,4-tetrahydro-8H-pyrido[1,2-a]pyrazin-8-one] | +++ (three plus signs (+++) is associated with a pIC50 of above about 7)
25 | CC(C)(C)c1ccc(CN2CCn3cc(O)c(=O)cc3C2)cc1 [Example 7, 2-(4-tert-butylbenzyl)-7-hydroxy-1,2,3,4-tetrahydro-8H-pyrido[1,2-a]pyrazin-8-one] | +++ (three plus signs (+++) is associated with a pIC50 of above about 7)
26 | CCc1ccc(CN2CCn3cc(O)c(=O)c(Cl)c3C2)cc1 [Example 136, 9-chloro-2-(4-ethylbenzyl)-7-hydroxy-1,2,3,4-tetrahydro-8H-pyrido[1,2-a]pyrazin-8-one] | +++ (three plus signs (+++) is associated with a pIC50 of above about 7)
27 | O=c1cc2n(cc1O)CCN(C1CCc3c(Cl)cccc31)C2 (stereo not shown) [Example 73, 2-(4-chloro-2,3-dihydro-1H-inden-1-yl)-7-hydroxy-1,2,3,4-tetrahydro-8H-pyrido[1,2-a]pyrazin-8-one] | +++ (three plus signs (+++) is associated with a pIC50 of above about 7)
28 | Cc1ccc(-c2nc3sccn3c2CN2CCn3cc(O)c(=O)cc3C2)cc1 [Example 56, 7-hydroxy-2-{[6-(4-methylphenyl)imidazo[2,1-b][1,3]thiazol-5-yl]methyl}-1,2,3,4-tetrahydro-8H-pyrido[1,2-a]pyrazin-8-one] | ++ (two plus signs (++) is associated with a pIC50 of from about 6 to 7)
29 | CCCC(c1ccccc1)N1CCn2cc(O)c(=O)cc2C1 (stereo not shown) [Example 93, 7-hydroxy-2-(1-phenylbutyl)-1,2,3,4-tetrahydro-8H-pyrido[1,2-a]pyrazin-8-one] | ++ (two plus signs (++) is associated with a pIC50 of from about 6 to 7)
30 | CC(c1ccccc1F)N1CCn2cc(O)c(=O)cc2C1 (stereo not shown) [Example 98, 2-[1-(2-fluorophenyl)ethyl]-7-hydroxy-1,2,3,4-tetrahydro-8H-pyrido[1,2-a]pyrazin-8-one] | ++ (two plus signs (++) is associated with a pIC50 of from about 6 to 7)
31 | CC1Cn2cc(O)c(=O)cc2CN1Cc1ccc(OC(F)(F)F)cc1 (stereo not shown) [Example 130, 7-hydroxy-3-methyl-2-[4-(trifluoromethoxy)benzyl]-1,2,3,4-tetrahydro-8H-pyrido[1,2-a]pyrazin-8-one] | ++ (two plus signs (++) is associated with a pIC50 of from about 6 to 7)
